Data on five compounds can be found in ChEMBL document CHEMBL4825673, “Total and Semisyntheses of Polymyxin Analogues with 2-Thr or 10-Thr Modifications to Decipher the Structure-Activity Relationship and Improve the Antibacterial Activity” (J Med Chem, 2021).

Structures are written as SMILES. Values after ≈ are worked out from the molar mass of the structure shown.

The test system of series [1] is Klebsiella pneumoniae. Description: Antibacterial activity against Klebsiella pneumoniae assessed as inhibition of bacterial growth incubated for 24 hrs by broth microdilution method. In kind it is functional. The note with it: read-out: MIC100.
The subject of series [2] is HK-2. Briefly: Cytotoxicity against human HK-2 cells assessed as cell viability incubated for 72 hrs by CCK-8 assay. Type of series: cell-based. The note with it: hk-2, 72 h.
Series [3] deals with Moraxella catarrhalis. Briefly: Antibacterial activity against Moraxella catarrhalis assessed as inhibition of bacterial growth incubated for 24 hrs by broth microdilution method. Type of series: functional. Particulars: read-out: MIC100. A general note: In broth dilution the organism is exposed to a series of concentrations in liquid medium.
Series [4] has as its system Acinetobacter baumannii. Briefly: Antibacterial activity against Acinetobacter baumannii assessed as inhibition of bacterial growth incubated for 24 hrs by broth microdilution method. Type of series: functional. Particulars: read-out: MIC100.
The subject of series [5] is Escherichia coli. Description: Antibacterial activity against Escherichia coli assessed as inhibition of bacterial growth incubated for 24 hrs by broth microdilution method. In kind it is functional. The note with it: read-out: MIC100.
Series [6] deals with Pseudomonas aeruginosa. Briefly: Antibacterial activity against Pseudomonas aeruginosa PAO1 assessed as inhibition of bacterial growth incubated for 24 hrs by broth microdilution method. In kind it is functional. Particulars: read-out: MIC100.
Series [7] relates to Pseudomonas aeruginosa. Description: Antibacterial activity against Pseudomonas aeruginosa assessed as inhibition of bacterial growth incubated for 24 hrs by broth microdilution method. In kind it is functional. Particulars: read-out: MIC100.
For series [8], the system named is Klebsiella pneumoniae. Description: Antibacterial activity against Klebsiella pneumoniae KR15-2 assessed as inhibition of bacterial growth incubated for 24 hrs by broth microdilution method. In kind it is functional. The note with it: read-out: MIC100.
Series [9] relates to Moraxella catarrhalis. Description: Antibacterial activity against Moraxella catarrhalis BCA15-3 assessed as inhibition of bacterial growth incubated for 24 hrs by broth microdilution method. The note with it: read-out: MIC100. In kind it is functional.
In series [10] the test system is Escherichia coli. Description: Antibacterial activity against Escherichia coli ECO+14-2 assessed as inhibition of bacterial growth incubated for 24 hrs by broth microdilution method. In kind it is functional. The note with it: read-out: MIC100.
In series [11] the test system is Acinetobacter baumannii. Description: Antibacterial activity against Acinetobacter baumannii AR15-4 assessed as inhibition of bacterial growth incubated for 24 hrs by broth microdilution method. In kind it is functional. The note with it: read-out: MIC100.
For series [12], the system named is Acinetobacter baumannii. Briefly: Antibacterial activity against Acinetobacter baumannii ABA15-6 assessed as inhibition of bacterial growth incubated for 24 hrs by broth microdilution method. Particulars: read-out: MIC100. In kind it is functional.
Series [13] has as its system Moraxella catarrhalis. Briefly: Antibacterial activity against Moraxella catarrhalis BCA14-7 assessed as inhibition of bacterial growth incubated for 24 hrs by broth microdilution method. Type of series: functional. Particulars: read-out: MIC100.
For series [14], the system named is Pseudomonas aeruginosa. Briefly: Antibacterial activity against Pseudomonas aeruginosa PR15-1 assessed as inhibition of bacterial growth incubated for 24 hrs by broth microdilution method. Type of series: functional. Particulars: read-out: MIC100.
Series [15] relates to Pseudomonas aeruginosa. Briefly: Antibacterial activity against Pseudomonas aeruginosa PAE15-3 assessed as inhibition of bacterial growth incubated for 24 hrs by broth microdilution method. Type of series: functional. Particulars: read-out: MIC100.
Series [16] deals with Acinetobacter baumannii. Briefly: Antibacterial activity against Acinetobacter baumannii ABA15-5 assessed as inhibition of bacterial growth incubated for 24 hrs by broth microdilution method. Type of series: functional. Particulars: read-out: MIC100.
For series [17], the system named is Acinetobacter baumannii. Briefly: Antibacterial activity against Acinetobacter baumannii ABA15-4 assessed as inhibition of bacterial growth incubated for 24 hrs by broth microdilution method. In kind it is functional. The note with it: read-out: MIC100.
The subject of series [18] is Pseudomonas aeruginosa. Description: Antibacterial activity against Pseudomonas aeruginosa ATCC 27853 assessed as inhibition of bacterial growth incubated for 24 hrs by broth microdilution method. Type of series: functional. Particulars: read-out: MIC100.
In series [19] the test system is Klebsiella pneumoniae. Briefly: Antibacterial activity against Klebsiella pneumoniae KPN+14-10 assessed as inhibition of bacterial growth incubated for 24 hrs by broth microdilution method. Type of series: functional. Particulars: read-out: MIC100.
Series [20] has as its system Pseudomonas aeruginosa. Briefly: Antibacterial activity against Pseudomonas aeruginosa PAE15-8 assessed as inhibition of bacterial growth incubated for 24 hrs by broth microdilution method. The note with it: read-out: MIC100. Type of series: functional.
The subject of series [21] is Escherichia coli. Description: Antibacterial activity against Escherichia coli ECO+14-3 assessed as inhibition of bacterial growth incubated for 24 hrs by broth microdilution method. Type of series: functional. The note with it: read-out: MIC100.
Series [22] relates to Pseudomonas aeruginosa. Briefly: Antibacterial activity against Pseudomonas aeruginosa PAE15-14 assessed as inhibition of bacterial growth incubated for 24 hrs by broth microdilution method. In kind it is functional. Particulars: read-out: MIC100.
The test system of series [23] is Pseudomonas aeruginosa. Description: Antibacterial activity against Pseudomonas aeruginosa PAE15-5 assessed as inhibition of bacterial growth incubated for 24 hrs by broth microdilution method. Type of series: functional. The note with it: read-out: MIC100.
The subject of series [24] is Escherichia coli. Description: Antibacterial activity against Escherichia coli ECO-14-2 assessed as inhibition of bacterial growth incubated for 24 hrs by broth microdilution method. In kind it is functional. Particulars: read-out: MIC100.
Series [25] concerns Klebsiella pneumoniae. Briefly: Antibacterial activity against Klebsiella pneumoniae KPN+14-8 assessed as inhibition of bacterial growth incubated for 24 hrs by broth microdilution method. Type of series: functional. The note with it: read-out: MIC100.

With `CCCCCCCC(=O)N[C@@H](CCN)C(=O)N[C@H](C(=O)N[C@@H](CCN)C(=O)N[C@H]1CCNC(=O)[C@H](Cc2ccccc2)NC(=O)[C@H](CCN)NC(=O)[C@H](CCN)NC(=O)[C@H](CC(C)C)NC(=O)[C@@H](Cc2ccccc2)NC(=O)[C@H](CCN)NC1=O)[C@@H](C)O`, the MIC in [1] amounted to 2 µg/mL (≈ 1.62 µM); in series [3], 2 µg/mL (≈ 1.62 µM); in series [4], 0.06 µg/mL (≈ 0.0486 µM); in [5], 2 µg/mL (≈ 1.62 µM); in [6] it was 4 µg/mL (≈ 3.24 µM); in series [7], 0.25 µg/mL (≈ 0.202 µM). The Activity result in [2] was “Non-Toxic”.

As to `CC[C@H](C)CCCCC(=O)N[C@@H](CCN)C(=O)N[C@H](C(=O)N[C@@H](CCN)C(=O)N[C@H]1CCNC(=O)[C@H]([C@@H](C)OC(=O)[C@@H](N)CCCCN)NC(=O)[C@H](CCN)NC(=O)[C@H](CCN)NC(=O)[C@H](CC(C)C)NC(=O)[C@@H](Cc2ccccc2)NC(=O)[C@H](CCN)NC1=O)[C@@H](C)OC(=O)[C@@H](N)CCCCN`, in series [2], the Activity entry is reported as “Non-Toxic”. Moreover, the MIC in series [6] was determined as 4 µg/mL (≈ 2.74 µM).

As for `CCCCCCCC(=O)N[C@@H](CCN)C(=O)N[C@H](C(=O)N[C@@H](CCN)C(=O)N[C@H]1CCNC(=O)[C@H](CCC(N)=O)NC(=O)[C@H](CCN)NC(=O)[C@H](CCN)NC(=O)[C@H](CC(C)C)NC(=O)[C@@H](Cc2ccccc2)NC(=O)[C@H](CCN)NC1=O)[C@@H](C)O`, in series [2], the Activity result is given as “Non-Toxic”. Also, the MIC in [6] was 32 µg/mL (≈ 26.3 µM).

In the case of `CC[C@H](C)CCCCC(=O)N[C@@H](CCN)C(=O)N[C@H](C(=O)N[C@@H](CCN)C(=O)N[C@H]1CCNC(=O)[C@H]([C@@H](C)O)NC(=O)[C@H](CCN)NC(=O)[C@H](CCN)NC(=O)[C@H](CC(C)C)NC(=O)[C@@H](Cc2ccccc2)NC(=O)[C@H](CCN)NC1=O)[C@@H](C)OC(=O)[C@@H](N)Cc1ccc(O)cc1`, the MIC in series [8] was 4 µg/mL (≈ 2.93 µM); in series [1] it was 2 µg/mL (≈ 1.46 µM); in series [9], 1 µg/mL (≈ 0.732 µM); in series [10], 2 µg/mL (≈ 1.46 µM); in [3], above 32 µg/mL; in series [11], 0.125 µg/mL (≈ 0.0915 µM). In addition, the MIC stood at 0.03 µg/mL (≈ 0.022 µM) in [12]; 0.03 µg/mL (≈ 0.022 µM) in series [4]; 32 µg/mL (≈ 23.4 µM) in series [13]; 0.5 µg/mL (≈ 0.366 µM) in [14]; 0.5 µg/mL (≈ 0.366 µM) in [15]; 0.06 µg/mL (≈ 0.0439 µM) in series [16]. In addition, the MIC in series [17] was 0.06 µg/mL (≈ 0.0439 µM); in [18] it was 0.125 µg/mL (≈ 0.0915 µM); in [5], 0.25 µg/mL (≈ 0.183 µM); in series [19] it was 2 µg/mL (≈ 1.46 µM); in series [20], 0.5 µg/mL (≈ 0.366 µM); in [21], 0.25 µg/mL (≈ 0.183 µM). Also, the MIC in series [22] is 0.25 µg/mL (≈ 0.183 µM); in series [23], 0.25 µg/mL (≈ 0.183 µM); in [24], 0.25 µg/mL (≈ 0.183 µM); in series [25], 4 µg/mL (≈ 2.93 µM); in series [6] it was 1 µg/mL (≈ 0.732 µM); in series [7], 0.125 µg/mL (≈ 0.0915 µM).

With `CC[C@H](C)CCCCC(=O)N[C@@H](CCN)C(=O)N[C@H](C(=O)N[C@@H](CCN)C(=O)N[C@H]1CCNC(=O)[C@H]([C@@H](C)O)NC(=O)[C@H](CCN)NC(=O)[C@H](CCN)NC(=O)[C@H](CC(C)C)NC(=O)[C@@H](Cc2ccccc2)NC(=O)[C@H](CCN)NC1=O)[C@@H](C)OC(=O)[C@@H](N)CC(=O)O`, the MIC in series [1] was 0.5 µg/mL (≈ 0.379 µM); in series [3], above 32 µg/mL; in series [4], 0.125 µg/mL (≈ 0.0948 µM); in [5], 0.25 µg/mL (≈ 0.19 µM); in series [6], 2 µg/mL (≈ 1.52 µM); in series [7], 0.25 µg/mL (≈ 0.19 µM). The Activity result in series [2] is reported as “Non-Toxic”.
